Results as given in US8895535B2, “Pyrrolidinones as MetAP-2 inhibitors” (Merck Patent GmbH, priority 2010, dated 2014).

The compounds below were run against MetAP-2 (Homo sapiens, UniProt P50579) (assay: MetAP-2 activity measurement (coupled enzymatic reactions, substrate Met-Arg-Ser)). Details: Inhibition of MetAP-2; read-out: IC50 enzyme.
Assay type: biochemical
Method: MetAP-2 Activity Measurement
The MetAP-2 activity is determined by coupling enzymatic reactions. The tripeptide Met-Arg-Ser (MAS) is employed as substrate. The methionine liberated is firstly converted into Metox and H2O2 by L-aminooxidase (AAO).
MetAP-2 activity can be recorded continuously as kinetics. The reaction scheme illustrates that one mol of dianisidineox is formed per mol of methionene. The MetAP-2 enzyme activity can therefore be calculated directly as Δ absorption per time unit. […] of the MetAP-2 activity (mol of Met/time unit) is possible with the aid of the dianisidineox extinction coefficient.
The change in extinction per time unit is depicted graphically and a slope calculation is carried out in the visually linear region of the reaction.

MetAP-2, sequence (P50579 whole entry, species assumed): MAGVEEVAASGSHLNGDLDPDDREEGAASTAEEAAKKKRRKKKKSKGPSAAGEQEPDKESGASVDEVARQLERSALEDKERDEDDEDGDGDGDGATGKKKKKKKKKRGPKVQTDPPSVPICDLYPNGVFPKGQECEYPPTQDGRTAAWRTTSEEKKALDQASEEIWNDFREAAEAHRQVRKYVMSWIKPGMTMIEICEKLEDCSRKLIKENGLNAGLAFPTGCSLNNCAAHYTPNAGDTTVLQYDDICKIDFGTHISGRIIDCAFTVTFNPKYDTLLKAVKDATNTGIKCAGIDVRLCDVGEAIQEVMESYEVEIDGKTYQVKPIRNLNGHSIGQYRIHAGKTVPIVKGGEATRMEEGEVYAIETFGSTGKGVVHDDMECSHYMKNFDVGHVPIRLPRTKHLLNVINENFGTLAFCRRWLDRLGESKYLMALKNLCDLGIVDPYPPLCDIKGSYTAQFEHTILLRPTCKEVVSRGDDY

Row | Compound | IC50
1 | O=C(NCc1cccc(Br)c1)[C@@]1(O)CCN(c2ccccc2)C1=O [A1] | 10 to 1000 nM
2 | CC(C)(C)c1cnc(CCNC(=O)[C@@]2(O)CCN(c3ccccc3)C2=O)o1 [A2] | > 10000 nM
3 | CCc1nnn(CCNC(=O)[C@@]2(O)CCN(c3ccccc3)C2=O)n1 [A3] | 1000 to 10000 nM
4 | O=C(NCc1cccc(OC(F)F)c1)[C@@]1(O)CCN(c2ccccc2)C1=O [A6] | 1000 to 10000 nM
5 | O=C(NCc1cccc(OC(F)(F)F)c1)[C@@]1(O)CCN(c2ccccc2)C1=O [A8] | 1000 to 10000 nM
6 | Cc1nccn1-c1cccc(CNC(=O)[C@@]2(O)CCN(c3ccccc3)C2=O)c1 [A9] | 1000 to 10000 nM
7 | CC(C)(C)c1nc(CCNC(=O)[C@@]2(O)CCN(c3ccccc3)C2=O)no1 [A10] | > 10000 nM
8 | O=C(NCCc1noc(C2CCCC2)n1)[C@@]1(O)CCN(c2ccccc2)C1=O [A12] | > 10000 nM
9 | CCc1nnnn1CCNC(=O)[C@@]1(O)CCN(c2ccccc2)C1=O [A13] | > 10000 nM
10 | Cc1nnc(CCNC(=O)[C@@]2(O)CCN(c3ccccc3)C2=O)s1 [A14] | > 10000 nM
11 | O=C(NCCc1nnc(C(F)(F)F)o1)[C@@]1(O)CCN(c2ccccc2)C1=O [A15] | > 10000 nM
12 | Cc1nc(CCNC(=O)[C@@]2(O)CCN(c3ccccc3)C2=O)cs1 [A16] | 1000 to 10000 nM
13 | O=C(NCCc1nccs1)[C@@]1(O)CCN(c2ccccc2)C1=O [A17] | 10 to 1000 nM
14 | Cc1ccn(CCNC(=O)[C@@]2(O)CCN(c3ccccc3)C2=O)n1 [A19] | 1000 to 10000 nM
15 | O=C(NCc1cccc(Cl)c1F)[C@@]1(O)CCN(c2ccccc2)C1=O [A20] | 10 to 1000 nM
16 | O=C(NCc1c(F)ccc(Cl)c1F)[C@@]1(O)CCN(c2ccccc2)C1=O [A21] | 10 to 1000 nM
17 | O=C(NCc1cc(Br)ccc1F)[C@@]1(O)CCN(c2ccccc2)C1=O [A22] | 10 to 1000 nM
18 | O=C(NCc1ccc(F)c(Br)c1)[C@@]1(O)CCN(c2ccccc2)C1=O [A23] | 10 to 1000 nM
19 | O=C(NCc1cccnc1)[C@@]1(O)CCN(c2ccccc2)C1=O [A24] | 1000 to 10000 nM
20 | O=C(NCc1cccc(N2CCCC2)n1)[C@@]1(O)CCN(c2ccccc2)C1=O [A25] | > 10000 nM
21 | O=C(NCc1ccccn1)[C@@]1(O)CCN(c2ccccc2)C1=O [A26] | > 10000 nM
22 | O=C(NCc1cccc(C(F)(F)F)c1)[C@@]1(O)CCN(c2ccccc2)C1=O [A28] | 10 to 1000 nM
23 | O=C(NCc1cccc(Br)c1)[C@@]1(O)CCN(c2ccc(Br)cc2)C1=O [A29] | 10 to 1000 nM

Row | Compound | IC50
24 | O=C(NCCc1cccs1)[C@@]1(O)CCN(c2ccc(Br)cc2)C1=O [A30] | 10 to 1000 nM
25 | O=C(NCCc1cccs1)[C@@]1(O)CCN(c2ccc(F)cc2F)C1=O [A31] | 10 to 1000 nM
26 | O=C(NCCc1cccs1)[C@@]1(O)CCN(c2ccc(F)cc2)C1=O [A32] | 10 to 1000 nM
27 | CC(C)(C)c1noc(CCNC(=O)[C@@]2(O)CCN(c3ccccc3)C2=O)n1 [A34] | > 10000 nM
28 | CCc1nnc(CCNC(=O)[C@@]2(O)CCN(c3ccccc3)C2=O)s1 [A35] | > 10000 nM
29 | O=C(NCc1cccc(-c2nccs2)c1)[C@@]1(O)CCN(c2ccccc2)C1=O [A36] | 1000 to 10000 nM
30 | O=C(NCCc1cccs1)[C@@]1(O)CCN(c2cccc(Cl)c2)C1=O [A37, (S)-1-(3-chlorophenyl)-3-hydroxy-2-oxopyrrolidine-3-carboxylic acid (2-thiophen-2-ylethyl)amide] | 10 to 1000 nM
31 | O=C(NCc1cccc(Br)c1)[C@@]1(O)CCN(c2ccc(F)cc2)C1=O [A38] | 10 to 1000 nM
32 | O=C(NCc1cccc(Br)c1)[C@@]1(Cl)CCN(c2ccccc2)C1=O [A39] | > 10000 nM
33 | O=C(NCCc1cccs1)[C@]1(O)CCN(c2cccc(Cl)c2)C1=O [A40] | 10 to 1000 nM
34 | O=C(NCc1cccc(Br)c1)[C@]1(O)CCN(c2ccc(F)cc2)C1=O [A41] | 1000 to 10000 nM
35 | CCc1nnn(CCNC(=O)[C@]2(O)CCN(c3ccccc3)C2=O)n1 [A42] | > 10000 nM
36 | O=C(NCc1cccc(Br)c1)[C@]1(Cl)CCN(c2ccccc2)C1=O [A43] | > 10000 nM
37 | O=C(NCCn1cccn1)[C@@]1(O)CCN(c2ccccc2)C1=O [A44] | 1000 to 10000 nM
38 | O=C(NCCN1CCCC1)[C@@]1(O)CCN(c2ccccc2)C1=O [A45] | > 10000 nM
39 | O=C(NCc1ccc(F)c(Cl)c1F)[C@@]1(O)CCN(c2ccccc2)C1=O [A46] | 10 to 1000 nM
40 | O=C(NCc1ccc(F)c(Cl)c1)[C@@]1(O)CCN(c2ccccc2)C1=O [A47] | 10 to 1000 nM
41 | O=C(NCc1cc(Cl)ccc1F)[C@@]1(O)CCN(c2ccccc2)C1=O [A49] | 10 to 1000 nM
42 | O=C(NCc1cccc(Br)c1)[C@@]1(O)CCN(c2ccc(F)c(Cl)c2)C1=O [A50] | 10 to 1000 nM
43 | O=C(NCCc1cccs1)[C@@]1(O)CCN(c2ccc(F)c(Cl)c2)C1=O [A51] | 10 to 1000 nM
44 | O=C(NCc1cccc(Br)c1)[C@@]1(O)CCN(c2ccc(F)cc2F)C1=O [A52] | 10 to 1000 nM
45 | O=C(NCc1cccc(Br)c1)[C@]1(O)CCN(c2cccc3ccccc23)C1=O [A53] | > 10000 nM
46 | O=C(NCc1cccc(Br)c1)[C@@]1(O)CCN(c2ccc3ccccc3c2)C1=O [A54] | 10 to 1000 nM

Row | Compound | IC50
47 | O=C(NCCc1cccs1)[C@@]1(O)CCN(c2ccc3ccccc3c2)C1=O [A55] | 10 to 1000 nM
48 | O=C(NCc1cccc(Cl)c1F)[C@@]1(O)CCN(c2ccc(F)c(Cl)c2)C1=O [A56] | 10 to 1000 nM
49 | O=C(NCc1cccc(Cl)c1F)[C@@]1(O)CCN(c2cccc(Cl)c2)C1=O [A57] | 10 to 1000 nM
50 | O=C(NCc1cccc(Cl)c1F)[C@@]1(O)CCN(c2ccc(F)cc2)C1=O [A58] | 10 to 1000 nM
51 | O=C(NCc1nc2ccccc2s1)[C@@]1(O)CCN(c2ccccc2)C1=O [A60] | > 10000 nM
52 | O=C(NCCc1cccs1)[C@@]1(Cl)CCN(c2ccccc2)C1=O [A61] | > 10000 nM
53 | O=C(NCc1ccco1)[C@@]1(O)CCN(c2ccccc2)C1=O [A62] | 10 to 1000 nM
54 | CC(C)CCNC(=O)C1(O)CCN(c2ccccc2)C1=O (centres unmarked) [A63] | 10 to 1000 nM
55 | O=C(NCc1ccco1)C1(O)CCN(c2ccccc2)C1=O (centres unmarked) [A64] | 1000 to 10000 nM
56 | O=C(NCc1cccc(Cl)c1F)[C@]1(O)CCN(c2ccc(F)cc2)C1=O [A67] | 1000 to 10000 nM
57 | O=C(NCc1cccc(Cl)c1F)[C@]1(O)CCN(c2cccc(Cl)c2)C1=O [A68] | 1000 to 10000 nM
58 | O=C(NCCc1cccs1)[C@]1(O)CCN(c2ccc3ccccc3c2)C1=O [A69] | 10 to 1000 nM
59 | O=C(NCc1cccc(Br)c1)[C@]1(O)CCN(c2ccc3ccccc3c2)C1=O [A70] | > 10000 nM
60 | O=C(NCc1cccc(Br)c1)[C@@]1(O)CCN(c2cccc3ccccc23)C1=O [A71] | 10 to 1000 nM
61 | O=C(NCc1cccc(Br)c1)[C@]1(O)CCN(c2ccc(F)cc2F)C1=O [A72] | > 10000 nM
62 | O=C(NCc1cccc(Br)c1)[C@]1(O)CCN(c2ccc(F)c(Cl)c2)C1=O [A73] | 1000 to 10000 nM
63 | O=C(NCc1ccc(F)c(Cl)c1)[C@]1(O)CCN(c2ccccc2)C1=O [A74] | > 10000 nM
64 | O=C(NCc1cccc(Br)c1)[C@]1(O)CCN(c2ccc(Br)cc2)C1=O [A76] | > 10000 nM
65 | O=C(NCCc1cccs1)[C@]1(O)CCN(c2ccc(Br)cc2)C1=O [A77] | 1000 to 10000 nM
66 | O=C(NCCc1cccs1)[C@]1(O)CCN(c2ccc(F)cc2)C1=O [A78] | 1000 to 10000 nM
67 | O=C(NCc1cccc(Br)c1)[C@]1(O)CCN(c2ccccc2)C1=O [A79] | > 10000 nM
68 | O=C(NCc1cc(F)cc(C(F)(F)F)c1)[C@@]1(O)CCN(c2ccc(F)cc2)C1=O [A162] | 10 to 1000 nM
69 | O=C(NCc1cc(C(F)(F)F)cc(C(F)(F)F)c1)[C@@]1(O)CCN(c2ccc(F)cc2)C1=O [A163] | > 10000 nM

Row | Compound | IC50
70 | O=C(NCc1cc(F)cc(C(F)(F)F)c1)[C@@]1(O)CCN(c2ccccc2)C1=O [A164] | 10 to 1000 nM
71 | O=C(NCc1cc(C(F)(F)F)cc(C(F)(F)F)c1)[C@@]1(O)CCN(c2ccccc2)C1=O [A165] | > 10000 nM
72 | Cn1cc(N2CC[C@](O)(C(=O)NCc3cccc(Cl)c3F)C2=O)cn1 [A170] | 10 to 1000 nM
73 | COCCN1CC[C@](O)(C(=O)NCc2cc(F)cc(F)c2)C1=O [A171] | 1000 to 10000 nM
74 | O=C(NCc1cc(F)cc(Cl)c1)[C@@]1(O)CCN(C2CCCCC2)C1=O [A173] | 10 to 1000 nM
75 | Cc1ccc(N2CC[C@](O)(C(=O)NCc3cc(F)cc(Cl)c3)C2=O)cn1 [A181] | 10 to 1000 nM
76 | CC(C)n1cc(N2CC[C@](O)(C(=O)NCc3cccc(Cl)c3F)C2=O)cn1 [A200] | 10 to 1000 nM
77 | CCn1cc(N2CC[C@](O)(C(=O)NCc3cc(F)cc(F)c3)C2=O)cn1 [A211] | 10 to 1000 nM
78 | N#Cc1cccc(CNC(=O)[C@@]2(O)CCN(c3ccccc3)C2=O)c1 [A215] | 10 to 1000 nM
79 | O=C(NCCc1cc(F)cc(Cl)c1)[C@]1(O)CCN(c2cccc(C(F)(F)F)c2)C1=O [A220] | 1000 to 10000 nM
80 | O=C(NCCc1cc(F)cc(Cl)c1)[C@@]1(O)CCN(c2ccc(C(F)(F)F)cc2)C1=O [A233] | 10 to 1000 nM
81 | CC(C)n1cc(N2CC[C@](O)(C(=O)NCCc3cc(F)cc(Cl)c3)C2=O)cn1 [A240] | 10 to 1000 nM
82 | CS(=O)(=O)N1CCc2cc(N3CCC(O)(C(=O)NCc4cc(F)cc(Cl)c4)C3=O)ccc21 (centres unmarked) [A253] | 10 to 1000 nM
83 | CS(=O)(=O)c1ccc(N2CC[C@](O)(C(=O)NCc3cc(F)cc(Cl)c3)C2=O)cc1 [A260] | 10 to 1000 nM
84 | CC(=O)N1CCc2cc(N3CCC(O)(C(=O)NCCc4cc(F)cc(Cl)c4)C3=O)ccc21 (centres unmarked) [A261] | 10 to 1000 nM
85 | Cc1nnc(-c2ccc(N3CC[C@](O)(C(=O)NCc4cc(F)cc(Cl)c4)C3=O)cc2)o1 [A267] | 10 to 1000 nM
86 | O=C(NCc1cc(F)cc(Cl)c1)C1(O)CCN(c2ccc3c(cnn3C3CCCCO3)c2)C1=O (centres unmarked) [A279] | 10 to 1000 nM
87 | O=CN1CCc2cc(N3CC[C@](O)(C(=O)NCc4cc(F)cc(Cl)c4)C3=O)ccc21 [A282] | 10 to 1000 nM
88 | O=CN1CCc2cc(N3CC[C@@](O)(C(=O)NCc4cc(F)cc(Cl)c4)C3=O)ccc21 [A285] | > 10000 nM
89 | COC(=O)N1CCc2cc(N3CCC(O)(C(=O)NCc4cc(F)cc(Cl)c4)C3=O)ccc21 (centres unmarked) [A286] | 10 to 1000 nM
